This is an account of results in patent US12613237B2, “Biosensors for detecting arrestin signaling” (MONTANA MOLECULAR, LLC, priority 2018, dated 2026).

In this assay the test system is vasopressin receptor. It counts as cell-based. The settings on record: HEK293T cells (FIG. 8), compared to vasopressin.

As for `CC[C@H](C)[C@@H]1NC(=O)[C@H](Cc2ccc(O)cc2)NC(=O)[C@@H](N)CSSC[C@@H](C(=O)N2CCC[C@H]2C(=O)N[C@@H](CC(C)C)C(=O)NCC(N)=O)NC(=O)[C@H](CC(N)=O)NC(=O)[C@H](CCC(N)=O)NC1=O` [oxytocin], the “beta arrestin signaling (green fluorescence), speed” value is given as “significantly slower”.
